Experimental data taken from patent publication US9212205B2, “Nucleic acid binding compounds and methods of use” (University of Rochester, priority 2007, dated 2015).
Read-outs that look alike come from different tables or passages of the source.

Columns and labels:
[1] = target: (CUG) repeat RNA SEQ ID NO:7; test: Filter binding assay (FBA), SEQ ID NO:7; conditions: negative control; method (FBA or FT) not stated; read-out: KD for CUG repeat RNA (SEQ ID NO:7)
Procedure: A filter binding assay system was utilized to provide a rapid initial assessment of binding affinity. All binding studies were performed in PBS pH 7.2+1 mM MgCl2 at 22° C. Various concentrations of small molecules were incubated with 10 nM FAM-labeled RNA in a total volume of 50 μl for 20 minutes. A slot blot apparatus was then assembled with a wet nitrocellulose filter, on top of a wet nylon filter, on top of filter paper. 40 μl of each binding mixture was then loaded into an individual well of the apparatus and allowed to penetrate the filters for 10 minutes. The peptidic disulfides selected from the DCL efficiently bind to the nitrocellulose filter. In contrast, the FAM-labeled RNA strands penetrate the nitrocellulose filter and are bound by the nylon filter. As such, RNA bound by the peptidic library members remains bound on the nitrocellulose filter, and unbound RNA passes to the nylon filter.
Densitometric analysis of the ratio of labeled RNA on the nitrocellulose to nylon filters allows quantification of binding (FIG. 15A). All binding isotherms were fit to the logistic binding model (Equation 1 above). The repetitive nature of the target sequences may in some cases result in binding stoichiometries that are more complex than a simple 1:1 interaction.
To test specificity and to confirm the determined binding affinities, filter binding assays and fluorescence titrations were performed with SEQ ID NOS: 7-11 (Table 5), and the HIV-1 frameshift stimulating RNA hairpin used in preceding Examples (SEQ ID NO:1, Table 5). Fluorescence titrations were performed using a Varian Cary Eclipse spectrophotometer. 2 μl of 50 or 500 μM small molecule were titrated into 400 μl of FAM labeled RNA sequences an allowed to equilibrate for at least 10 minutes, or until no change in fluorescence spectra was observed. Changes in fluorescence emission at 518 nm (excitation at 490 nm) were measured. Raw data were corrected for dilution dependant changes, and Em518 was plotted against small molecule concentration and fit to the one site binding equation y=(bmaz*x)/(KD+x).) Competition experiments utilizing target RNA (SEQ ID NO:7) and a 20-fold molar excess of total yeast tRNA were performed to measure non-specific RNA binding (Luedtke et al., “RNA-Ligand Interactions: Affinity and Specificity of Aminoglycoside Dimers and Acridine Conjugates to the HIV-1 Rev Response Element,” Biochemistry 42:11391-11403 (2003), which is hereby incorporated by reference in its entirety). Compound 1-1, the HIV-1 RNA ligand, served as a negative control.

[2] = target: HIV-1 frameshift-inducing RNA stem-loop (SEQ ID NO:1); test: Fluorescence titration of Cy-3 labeled HIV-1 RNA stem-loop; type: binding; conditions: stem-loop 4 × 10^−7 M, PBS buffer, 25° C.
Procedure: The binding of dicarba analogs to the HIV-1 frameshift-inducing RNA was measured using fluorescence spectroscopy. Fluorescence titrations were performed on a Varian Cary eclipse fluorescence spectrophotometer using 1 cm path-length quartz fluorescence cell. The solution of Cy-3 labeled HIV-1 RNA stem-loop in PBS buffer (400 μL, 400 nM) was taken in the cell and excited with a wavelength of 550 nm. A PMT voltage of 715 V was used for collecting the fluorescence data and the emission spectrum was collected from 555 to 600 nm wavelength range. The ligand solution in PBS buffer was added to the target RNA in the cell in either 2 or 4 μL increments and was allowed to equilibrate for 10 minutes before recording the emission spectrum. Statistical analysis of the data was carried out using Origin 7 (OriginLab corporation). Binding constants were determined by fitting the data to one-site binding model equation.
A 5′-Cy3 labeled upper stem-loop of HIV-1 RNA (SEQ ID NO:1) was titrated with increasing amount of the dicarba analogs in a phosphate buffer (PBS, pH 7.4) using the same protocol to that described in Example 3 above. The fluorescence intensity of the labeled RNA stem-loop decreased as a function of the ligand concentration. […] Normally, one would expect a greater difference between the affinities of the two isomers.
To further evaluate the binding selectivity of dicarba analogs to the frameshift-inducing stem-loop, fluorescence titrations were repeated in the presence of twenty-fold excess concentration of yeast tRNA. […] In an interesting result it was discovered that the monomeric compound (5) also bound to the HIV-1 RNA stem-loop with similar affinity as that of the other analogs, but the binding affinity was diminished in the presence of tRNA. […] Quinoline is a known intercalator of nucleotide bases and has the capability to interact with RNA non-specifically. But it is the peptidic part of the molecule in ligands 5-5 E and 5-5 Z that imparts specificity to the interaction between the ligand and the RNA stem-loop. The peptidic part on monomer 5 is insufficient to impart specificity to the interaction as evident from the results.

[3] = target: alternate RNA stem-loop (Seq III, SEQ ID NO:3); test: SPR binding specificity, Seq III
Procedure: Graphical analysis of Surface Plasmon Resonance (SPR) data was carried out using DeltaGraph (Rockware Inc.). SPR analysis was conducted on a Reichert SR7000 refractometer using Reichert gold sensor slides that consist of a mixed self-assembled monolayer of thiol-PEG-alcohols and thio-PEG-carboxylic acids (˜9:1; PEG=polyethylene glycol). Amine functionalized small molecules were attached by […]/EDC coupling to the carboxy termini of the surface. After activating the monolayer, molecules were covalently attached through the addition of a 1 mg/mL solution of molecule in a sodium acetate buffer (20 mM, pH=5.5). Unreacted activated esters were quenched through the addition of ethanolamine. A flow rate of 10 μL/min and injection volumes of 150 μL was used throughout the experiment. RNA solutions were made to be 15.3 nM, 62.5 nM, 250 nM, 500 nM, 1 μM, 2 μM, 10 μM, and 50 μM. […]
Specificity was assessed by measuring the affinity of 1-1 to three other oligonucleotides: the DNA sequence homologous to I (Seq II, FIG. 7C, SEQ ID NO:2), the alternate RNA stem-loop (Seq III, FIG. 7D, SEQ ID NO:3) (Karan et al., “RNA-Selective Coordination Complexes Identified via Dynamic Combinatorial Chemistry,” J. Am. Chem. Soc. 123:7455-7456 (2001), which is hereby incorporated by reference in its entirety), and an RNA stem loop with an altered loop sequence (Seq IV, FIG. 7E, SEQ ID NO:4).

`CCc1nc2ccccc2cc1C(=O)N[C@@H](CSSC[C@H](NC(=O)c1cc2ccccc2nc1CC)C(=O)N1CCC[C@H]1C(=O)N[C@@H](Cc1ccccc1)C(=O)NCCCN)C(=O)N1CCC[C@H]1C(=O)N[C@@H](Cc1ccccc1)C(=O)NCCCN` [dimer 1-1] was tested. Which Kd [1] did it give?
Its Kd is greater than 40000 nM.

What about the Kd ([2]; 8 μM tRNA (twenty-fold excess), read-out: Binding Affinity (Kd) in the presence of excess yeast tRNA) of the same compound?
The Kd was 320 ± 70 nM.

And the Kd ([2]; fluorescence titration, read-out: Binding Affinity (Kd))?
Its Kd is 350 ± 110 nM.

And the “affinity for sequence III” value [3]?
The value was “no measurable affinity”.
